Assay results taken from ChEMBL document CHEMBL4507294, “Data for DCP probe MSD-CYP11B2” (2021).

Tests used:
Details in all cases: Compound concentration 10.0 uM
[1] = biological target: Delta-type opioid receptor (Homo sapiens) (UniProt P41143)
[2] = biological target: Muscarinic acetylcholine receptor M4 (Homo sapiens) (UniProt P08173)
[3] = biological target: Cannabinoid receptor 1 (Homo sapiens) (UniProt P21554)
Homo sapiens = species: Homo sapiens; assay: Inhibition of Nicotinic Acetylcholine at compound concentration of 10.0 uM in the Eurofins-Panlabs radioligand binding assay (Eurofins_assay_258590); type: protein-complex assay
[4] = biological target: GABA-A receptor; anion channel (Rattus norvegicus) (UniProt O09028+P15431+P18506+P18508+P19969+P20236+P23574+P23576+P28471+P28473+P30191+P62813+P63079+P63138+Q91ZM7+Q9ES14)

Sequence of Delta-type opioid receptor (Homo sapiens) (P41143 whole entry): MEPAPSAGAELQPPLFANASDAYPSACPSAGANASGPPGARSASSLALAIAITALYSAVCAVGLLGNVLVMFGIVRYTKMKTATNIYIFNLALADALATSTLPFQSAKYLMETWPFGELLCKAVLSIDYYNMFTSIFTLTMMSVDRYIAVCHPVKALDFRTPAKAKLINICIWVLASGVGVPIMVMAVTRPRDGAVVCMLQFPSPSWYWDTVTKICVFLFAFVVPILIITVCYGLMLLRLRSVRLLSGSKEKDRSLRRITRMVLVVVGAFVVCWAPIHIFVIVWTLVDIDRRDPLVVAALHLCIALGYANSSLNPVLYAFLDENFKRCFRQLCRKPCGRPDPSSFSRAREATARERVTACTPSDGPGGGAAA
Sequence of Cannabinoid receptor 1 (Homo sapiens) (P21554 whole entry): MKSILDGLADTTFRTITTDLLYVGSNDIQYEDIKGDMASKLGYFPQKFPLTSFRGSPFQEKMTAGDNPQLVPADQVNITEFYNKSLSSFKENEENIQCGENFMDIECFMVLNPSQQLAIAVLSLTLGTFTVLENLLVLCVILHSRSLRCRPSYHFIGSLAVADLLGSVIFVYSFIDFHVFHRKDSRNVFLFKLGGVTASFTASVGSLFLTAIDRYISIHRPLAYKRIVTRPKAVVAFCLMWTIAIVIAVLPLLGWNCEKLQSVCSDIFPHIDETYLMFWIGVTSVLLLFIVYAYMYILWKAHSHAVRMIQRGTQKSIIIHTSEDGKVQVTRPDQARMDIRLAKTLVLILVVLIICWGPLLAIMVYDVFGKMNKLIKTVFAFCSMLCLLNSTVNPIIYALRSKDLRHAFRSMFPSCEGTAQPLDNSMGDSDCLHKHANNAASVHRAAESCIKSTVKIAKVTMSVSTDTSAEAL
Sequence of Muscarinic acetylcholine receptor M4 (Homo sapiens) (P08173 whole entry): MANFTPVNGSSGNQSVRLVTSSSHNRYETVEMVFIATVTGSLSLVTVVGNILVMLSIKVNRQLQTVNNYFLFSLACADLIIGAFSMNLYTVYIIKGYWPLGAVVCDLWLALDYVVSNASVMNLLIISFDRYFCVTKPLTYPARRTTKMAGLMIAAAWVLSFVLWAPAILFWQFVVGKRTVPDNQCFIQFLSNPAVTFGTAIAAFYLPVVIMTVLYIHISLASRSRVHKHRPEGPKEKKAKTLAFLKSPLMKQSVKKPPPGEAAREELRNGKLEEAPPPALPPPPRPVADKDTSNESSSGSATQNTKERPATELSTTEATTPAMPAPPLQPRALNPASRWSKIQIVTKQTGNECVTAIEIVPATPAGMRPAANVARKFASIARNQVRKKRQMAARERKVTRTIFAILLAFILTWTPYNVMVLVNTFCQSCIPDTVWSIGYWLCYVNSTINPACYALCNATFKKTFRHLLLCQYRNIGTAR

Compound | inhibition [1] | inhibition [2] | inhibition [3] | inhibition (Homo sapiens) | inhibition [4]
FC(F)(F)c1ccc2c(c1)nc(-c1cccnc1)n2C1CC1 [MSD-CYP11B2-Negative-control] | -9.33% |  |  |  | 
CC(C)(O)c1cncc(-c2nc3ccc(F)cc3n2C2CC2)c1 [MSD-CYP11B2] |  | -0.57% | 7% | -3% | 6.26%
